Experimental data from patent publication US8530235B2, “Medium that supports culture of an oocyte and modulation of granulosa cell apoptosis” (Adelaide Research & Innovation Pty Ltd., priority 2005, dated 2013).

Key:
Smad2/3 = assay: CAGA-luciferase activity, activation of Smad2/3 (Example 21); assay type: cell-based
Source text: FIGS. 15A and 15B show the effect of various concentrations of the AlK4/5/7 inhibitor on TGF-β1 stimulated CAGA luciferase activity.

[1] = tested on: cumulus expansion of oocytectomised (OOX) complexes; assay: FSH-induced cumulus expansion score of OOX complexes; assay type: cell-based, mice; details: OOX complexes
Experimental: Members of the TGF-β superfamily are prime candidates for the mouse cumulus expansion-enabling factor (CEEF). This study was conducted to examine TGF-β superfamily processes regulating cumulus expansion. COCs were collected from eGG-primed mice and the oocyte microsurgically removed to generate oocytectomised (OOX) complexes. […] The type-I receptors for GDF9 and […] are ALK5 and ALK4, respectively. We tested the ability of an ALK4/5/7 kinase inhibitor to neutralize cumulus expansion.

granulosa cell = assay: GDF-9 and oocyte-induced granulosa cell DNA synthesis (Example 21); assay type: cell-based
Source text: FIGS. 14A and 14B show the effect of an AlK4/5/7 inhibitor on either GDF-9, TGF-β1, or oocyte induced DNA synthesis (Panel A), and the effect of various concentrations of the inhibitor on GDF-9 and oocyte induced DNA synthesis (Panel B).

[2] = tested on: Smad 1-responsive BRE-luciferase reporter; assay: Smad 1-responsive BRE-luciferase reporter in mural granulosa cells from large antral follicles; assay type: cell-based, marmoset monkey, Callithrix jacchus; details: 48 h; 0.5 ng/ml TGFβ1, 88-265 ng/ml GDF9, 50 ng/ml BMP7 or 60 mouse oocytes
Experimental: (§1) FIGS. 18A and 18B show the activation of the TGF-β signalling pathway by GDF9 and oocytes. MGC from large follicles were transiently transfected with either a Smad 3-responsive CAGA-luciferase reporter construct (A) or a Smad 1-responsive BRE-luciferase reporter construct (B). Cells were subsequently left untreated, treated with 0.5 ng/ml TGFβ1, 88-265 ng/ml GDF9, 50 ng/ml BMP7 or co-cultured with 60 mouse oocytes. Cells were cultured for 48 h after which time luciferase activity was measured from cell extracts. Bars represent means+/− SEM from 3 replicate experiments expressed as a fold change relative to control.
(§2) Luciferase reporter constructs responsive to specific phosphorylated Smads were used to detect the activation of mural GC Smad proteins by recombinant GDF9 Mural GCs were collected and processed as described above, except cells were given a final wash in DMEM(MP Biomedicals, Seven Hills, Australia)+2% FCS (Trace Biosciences, Castle Hill, Australia). Following the final wash, cells were transferred to individual wells of a 96-well plate (Falcon) and cultured at 1.6×10^5 cells/ml. After 4 hours of culture, cells were transiently transfected with 50 ng of luciferase reporter construct DNA using Fugene 6 (Roche Diagnostics, Castle Hill, Australia). 18 hours after transfection, medium was aspirated from cells and replaced with DMEM supplemented with 0.1% FCS. Various ligands were added to cells at this point (see below) and the culture period extended for a further 48 hours. Experiments were terminated by removing media from wells and freezing plates at −20° C. […]
(§3) Seven adult female marmosets were primed with […] for 6 days, whole ovaries were removed on day 7, follicles manually excised, and GC were then collected from 3 size classes: periantral (PA; 0.42-0.66 mm), small antral (SA; 0.66-1.5 mm) and large antral (LA; >1.5 mm). […] In order to determine the effects of GDF9 on marmoset GC proliferation, we employed a GC bioassay whereby after 24 h ^3H-thymidine incorporation is assessed as an indicator of DNA synthesis and cellular proliferation. […]

[3] = tested on: Smad 3-responsive CAGA-luciferase reporter; assay: Smad 3-responsive CAGA-luciferase reporter in mural granulosa cells from large antral follicles; assay type: cell-based, marmoset monkey, Callithrix jacchus; details: 48 h; 0.5 ng/ml TGFβ1, 88-265 ng/ml GDF9, 50 ng/ml BMP7 or 60 mouse oocytes
Experimental: as §1, §2, §3

cumulus cells = assay: Cumulus cell apoptosis in oocytectomized complexes (OOX) and COC, TUNEL with confocal microscopy; assay type: cell-based, Bovine; details: OOX treated with 100 ng/ml BMP-7 and/or 10% BMP-15
Experimental: Bovine ovaries were collected from local abattoir and transported to the laboratory in warm saline (30-35° C.). Cumulus-oocyte complexes (COC) were aspirated from antral follicles (2- to 8-mm diameter) using an 18-gauge needle and a 10-ml syringe containing ˜2 ml aspiration media (Hepes-buffered Tissue Cultured Medium-199: TCM-199, ICN Biochemicals, Irvine, Calif., USA) supplemented with 50 μg/ml kanamycin (Sigma-Aldrish, St. louis, Mo.), 4 mg/ml fatty acid-free bovine serum albumin (FAF-BSA) (ICPbio ltd, Auckland, NZ). Intact COC with compact cumulus vestment greater than five cell layers and evenly pigmented cytoplasm were selected under a dissecting microscope and washed twice in Hepes-buffered TCM-199 and once in corresponding culturing media.
The cytoplasm of each oocyte was microsurgically removed from the COC (oocytectomy) using a micromanipulator as described in Buccione et al (Buccione et al. (1990) Dev Biol 138, 16-25.). The resulting oocytectomized complex (OOX) consists of a hollow zona pellucida surrounded by several layers of intact CC.
Denuded oocytes (DO) were generated by removing CC from COC by vortexing for approximately 4 minutes in 2 ml H-TCM-199/BSA. Any remaining CC were removed by repeated passage of the oocytes through a fine-bore fire-polished glass pipette in H-TCM-199/BSA.
CC apoptoic DNA was detected using TUNEl (Roche Diagnostic, Penzberg, Germany) according to the manufacturer's instructions. Briefly, following culture COC and OOX complexes were washed twice in PBS (pH 7.4) containing 1% BSA, fixed in 4% paraformaldehyde in PBS (pH 7.4) overnight at 4° C. and washed twice with PBS/BSA before placing on Cell-Tak-coated coverslips (Beckton Dickinson Biosciences, Franklin lakes, N.J.). Complexes were then permeabilized in 0.11/u Triton X-100 in 0.1% sodium citrate for 1 hour at room temperature and washed 3 times in PBS/BSA. The complexes were then incubated in fluorescein-conjugated dUTP and terminal deoxynucleotide transferase (TUNEl reagents, Roche) for 1 hour at 37° C. in the dark. Positive controls were incubated in DNAse 1 (0.005 U/µl), which cleaves all DNA, for 20 minutes at room temperature and washed twice in PBS/BSA before TUNEl. Negative controls were incubated in fluorescein-dUTP in the absence of TdT. After TUNEl, complexes were washed twice in PBS/BSA and counterstained with propidium iodide 0.5 μg/ml (PI) plus RNase A (0.1 mg/ml) for 1 hour at room temperature in the dark to label all nuclei. Complexes were then washed twice in PBS/BSA and mounted with slight coverslip compression in VectaShield anti-bleaching solution (Vector labs, Burlingame, Calif.), and stored in the dark at 4° C. for confocal analysis.
Apoptosis in COC and OOX was visualised and quantified using confocal microscopy. Dual fluorescence emission from CC was detected using a Nikon C1 Confocal Scanning Head and a Nikon TE2000E microscope (Nikon, Tokyo, Japan). Simultaneous emission capture of the apoptotic signal (fluorescein, lacer excitation 488 nm, emission 510-530 nm) and the nuclear signal (propidium iodide, excitation lacer 532, emission 590-640 nm) was performed.
In order to generate an accurate representation of the overall apoptotic incidence for all complexes, the depth of each complex was measured through a Z series to divide the construct into three percentiles (optical Z plane sections) at 25%, 50% and 75%. These optical section images were acquired and saved as independent colour channels (green, apoptotic cumulus fluorescence and red, nuclear cumulus fluorescence). The captured images were then processed in Scanalytics IPlab software Version 3.6. (Scanalytics, Fairfax, Va.). Quantification of CC number (for each colour channel) was independently measured using a macro script utilizing an auto segmentation filter for each optical section percentile (3 optical “z”-plane sections for each complex).

## NC(=O)c1ccc(-c2nc(-c3ccccn3)c(-c3ccc4c(c3)OCO4)[nH]2)cc1 [ALK4/5/7 kinase inhibitor]
Smad2/3
  TGF-β1, GDF9 and oocyte-stimulated activation of Smad2/3 molecules (CAGA-luciferase activity) with inhibitor: completely abrogated
[1]
  GDF-9 and oocyte-induced cumulus expansion with inhibitor: completely neutralised
Granulosa cell
  GDF-9 and oocyte-induced granulosa cell DNA synthesis with inhibitor: completely abrogated

## TGF-β1: Transforming growth factor beta 1 [reference compound]
[2]
  BRE-luciferase activity compared to control levels: not activated
[3]
  CAGA-luciferase activity above control levels: 19 fold

B1: BMP-7: Recombinant human BMP-7 obtained from R&D systems (protein, UniProt P18075 293-431, looked up)
Bone morphogenetic protein 7: STGSKQRSQNRSKTPKNQEALRMANVAENSSSDQRQACKKHELYVSFRDLGWQDWIIAPEGYAAYYCEGECAFPLNSYMNATNHAIVQTLVHFINPETVPKPCCAPTQLNAISVLYFDDSSNVILKKYRNMVVRACGCH
[2]
  BRE-luciferase activity compared to control levels: 31 fold
[3]
  CAGA-luciferase activity above control levels: not stimulated
Cumulus cells
  effect on cumulus cell apoptosis: significantly reduced
